According to patent publication EP1570862A1, “Highly soluble binary cyclodextrin inclusion complexes” (priority 2004, dated 2005):
In brackets after ≈: the same amount, converted by molar mass.

Assay: physchem
Conditions: water
Method: The samples were mechanically shaken in a thermostatic bath shaker (~ 200 rpm) to attain thermal equilibrium, an aliquot was centrifuged (when necessary) and filtered using a 0.45µm filter (cellulose acetate or cellulose nitrate, Advantec MFS Inc., Duplin, USA).
The samples were shaken for different time intervals.

Compound `OC[C@H]1O[C@@H]2O[C@H]3[C@H](O)[C@@H](O)[C@@H](O[C@H]4[C@H](O)[C@@H](O)[C@@H](O[C@H]5[C@H](O)[C@@H](O)[C@@H](O[C@H]6[C@H](O)[C@@H](O)[C@@H](O[C@H]7[C@H](O)[C@@H](O)[C@@H](O[C@H]8[C@H](O)[C@@H](O)[C@@H](O[C@H]1[C@H](O)[C@H]2O)O[C@@H]8CO)O[C@@H]7CO)O[C@@H]6CO)O[C@@H]5CO)O[C@@H]4CO)O[C@@H]3CO` [β-cyclodextrin] has a solubility thermodynamic of 115 mM (≈ 131 mg/mL).
